Assay results from patent publication US20230357253A1, “AGONISTS OF STIMULATOR OF INTERFERON GENES STING” (THE SCRIPPS RESEARCH INSTITUTE, priority 2020, published 2023).

Target: human STING protein (Homo sapiens (Human), UniProt Q86WV6)
Test: WT STING binding assay (HTRF, competition with labeled 2′3′cGAMP)
Details: recombinant 6×His-tagged human STING, three hours at room temperature
Experimental: WT STING binding assay (Cisbio, Catalog #64BDSTGPEH). […] Upon proximity of the two dyes, the excitation of the donor by the flash lamp on the PHERAstar FSX plate reader triggers a Fluorescence Resonance Energy Transfer (FRET) towards the acceptor, which in turn fluoresces at 665 nm. To assess the ability of the synthetic small molecule STING ligands to bind to human STING, a competitive assay format was applied. A 10-point titration of each of the synthetic ligands in 5 uL were transferred into a 384 well plate, followed by 20 uL of assay buffer containing the 6×His-tagged human STING protein and labeled 2′3′cGAMP ligand and incubated for three hours at room temperature. The raw values obtained from the PHERAstar were used to calculate the reported IC50 values (the signal is inversely proportional to the binding of the synthetic ligand) through curve fitting in Genedata. The percent inhibition was calculated based upon the maximal amount of binding by synthetic compound versus the maximum binding of unlabeled 2′3′ cGAMP which was used as a control in each assay.

human STING protein, sequence (Q86WV6 whole entry): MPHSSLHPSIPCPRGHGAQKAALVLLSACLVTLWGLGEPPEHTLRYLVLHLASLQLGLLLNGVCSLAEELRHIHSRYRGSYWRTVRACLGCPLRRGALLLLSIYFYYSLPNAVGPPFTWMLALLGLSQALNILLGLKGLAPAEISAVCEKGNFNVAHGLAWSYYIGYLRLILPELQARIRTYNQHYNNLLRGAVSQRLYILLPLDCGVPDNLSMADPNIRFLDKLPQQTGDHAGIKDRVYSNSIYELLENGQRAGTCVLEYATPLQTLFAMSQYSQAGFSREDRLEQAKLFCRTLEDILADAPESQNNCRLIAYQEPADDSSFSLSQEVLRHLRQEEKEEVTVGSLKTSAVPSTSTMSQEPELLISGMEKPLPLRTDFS

`O=C(Nc1cc(OCCCCOc2cnc(C(=O)O)c(NC(=O)c3ccc(-n4ccnc4)nn3)c2)c(F)cc1C(=O)O)c1ccc(-n2ccnc2)nn1` [Compound 69] and `O=C(Nc1cc(OCCCCOc2cc(NC(=O)c3ccc(-n4ccnc4)nn3)c(C(=O)O)cc2Cl)ccc1C(=O)O)c1ccc(-n2ccnc2)nn1` [Compound 81] fall in the same range of IC50: 100 to 1000 nM for the first, 100 to 1000 nM for the second.

`CC(=O)Nc1cc(CCCc2cc(NC(=O)c3ccc(-n4ccnc4)nn3)c(C(=O)O)cc2F)ccc1C(=O)O` [Compound 73] and `O=C(Nc1cc(OCCc2cc(NC(=O)c3ccc(-n4ccnc4)nn3)c(C(=O)O)cc2F)c(F)cc1C(=O)O)c1ccc(-c2cn[nH]c2)nn1` [Compound 158] fall in the same range of IC50: 100 to 1000 nM for the first, 100 to 1000 nM for the second.

`O=C(Nc1cc(CCCc2cc(NC(=O)c3ccc4cnnn4n3)c(C(=O)O)cc2F)c(F)cc1C(=O)O)c1ccc(O)nn1` [Compound 120] and `Cn1nccc1-c1ccc(C(=O)Nc2cc(CCCc3cc(NC(=O)c4ccc(-c5ccnn5C)nn4)c(C(=O)O)cc3F)c(F)cc2C(=O)O)nn1` [Compound 201] fall in the same range of IC50: 100 to 1000 nM for the first, 100 to 1000 nM for the second.

`CCOC(=O)CCC(=O)c1cc2cc(OCCc3cc(NC(=O)c4ccc5nnnn5n4)c(C(=O)O)cc3F)c(OC)cc2s1` [Compound 122] and `COc1cc(NC(=O)c2ccc(-n3ccnc3)nn2)c(C(=O)O)c(F)c1OCCc1cc(NC(=O)c2ccc(-n3ccnc3)nn2)c(C(=O)O)cc1F` [Compound 189] fall in the same range of IC50: 100 to 1000 nM for the first, 100 to 1000 nM for the second.

Compared with `O=C(Nc1cc(CCOc2cc(NC(=O)c3ccc(-n4ccnc4)nn3)c(P(=O)(O)O)cc2F)c(F)cc1C(=O)O)c1ccc(-n2ccnc2)nn1` [Compound 153], `NC(=O)c1cc(F)c(CCOc2cc(NC(=O)c3ccc(-n4ccnc4)nn3)c(C(=O)O)cc2F)cc1NC(=O)c1ccc(-n2ccnc2)nn1` [Compound 186] is higher in IC50: 100 to 1000 nM for the first, greater than 1000 nM for the second.

`O=C(Nc1cc(F)c(CCOc2cc(C(=O)O)c(NC(=O)c3ccc(-n4ccnc4)nn3)cc2F)cc1C(=O)O)c1ccc(-n2ccnc2)nn1` [Compound 178] and `O=C(Nc1cc(CCOc2cc(NC(=O)c3ccc(-n4ccnc4)nn3)c(C(=O)O)cc2F)c(F)cc1CO)c1ccc(-n2ccnc2)nn1` [Compound 198] fall in the same range of IC50: 100 to 1000 nM for the first, 100 to 1000 nM for the second.

`O=C(Nc1cc(OCCc2cc(NC(=O)c3ccc(-n4ccnc4)nn3)c(-c3nn[nH]n3)cc2F)c(F)cc1C(=O)O)c1ccc(-n2ccnc2)nn1` [Compound 179] and `O=C(Nc1cc(OCCCOc2cc(NC(=O)c3ccc(-n4ccnc4)nn3)c(C(=O)O)cc2F)c(F)cc1C(=O)O)c1ccc(N2CCOCC2)nn1` [Compound 211] fall in the same range of IC50: 100 to 1000 nM for the first, 100 to 1000 nM for the second.

For `Cn1nccc1-c1ccc(C(=O)Nc2cc(CCOc3cc(NC(=O)c4ccc(-c5ccnn5C)nn4)c(C(=O)O)cc3F)c(F)cc2C(=O)O)nn1` [Compound 208], the IC50 was 100 to 1000 nM.

Test system: THP-1 Lucia ISG cells
Test: ISRE-luciferase assay (ISG-LUC activation)
Format: cell-based
Details: Homo sapiens, THP1-Lucia ISG, 24 hours, luciferase reporter
Experimental: ISRE-luciferase assay. THP-1 Lucia ISG cells were resuspended in low-serum growth media (2% FBS) at a density of 5×10^5 cells/ml and treated with test article or vehicle (DMSO). 50 μL of cells were seeded into each well of a 384-well white greiner plates and incubated for 24 hours. To evaluate expression of the luciferase reporter, 30 μl of Quanti-luc (Invivogen) detection reagent was added to each well and luminescence was read using an Envision plate reader (Perkin Elmer) set with an integration time of 0.1 seconds. For each cell type, luminescence signals for test article samples were normalized to vehicle-treated samples and reported as relative light units (RLU).

`COc1cc(C(=O)O)c(NC(=O)c2ccc(-n3ccnc3)nn2)cc1OCCc1cc(C(=O)O)c(NC(=O)c2ccc(-n3ccnc3)nn2)cc1Cl` [Compound 156] and `O=C(Nc1cc(OCCc2cc(C(=O)O)c(NC(=O)c3ccc(-n4ccnc4)nn3)cc2Cl)c(F)cc1C(=O)O)c1ccc(-n2ccnc2)nn1` [Compound 166] fall in the same range of EC50: 50 to 500 nM for the first, 50 to 500 nM for the second.

First: COC(=O)c1cc(F)c(OCCc2cc(NC(=O)c3ccc(-n4ccnc4)nn3)c(C(=O)OC)cc2C#N)cc1NC(=O)c1ccc(-n2ccnc2)nn1 [Compound 157]
Second: COC(=O)c1cc(F)c(OCCc2cc(C(=O)OC)c(NC(=O)c3ccc(-n4ccnc4)nn3)cc2C#N)cc1NC(=O)c1ccc(-n2ccnc2)nn1 [Compound 188]
The EC50 of the first is lower: 500 to 5000 nM for the first, greater than 5000 nM for the second. The first is the more potent here.

First: O=C(Nc1cc(CCCc2cc(NC(=O)c3ccc(-n4ccnc4)nn3)c(C(=O)O)cc2F)c(F)cc1C(=O)O)c1ccc(-c2cn[nH]c2)nn1 [Compound 159]
Second: O=C(Nc1cc(CCOc2cc(NC(=O)c3ccc(-n4ccnc4)nn3)c(C(=O)O)cc2F)c(F)cc1C(=O)O)c1ccc(-c2cn[nH]c2)nn1 [Compound 205]
The EC50 of the first is higher: 50 to 500 nM for the first, less than 50 nM for the second. The second is the more potent here.

`N#Cc1cc(C(=O)O)c(NC(=O)c2ccc(-n3ccnc3)nn2)cc1CCOc1cc(NC(=O)c2ccc(-n3ccnc3)nn2)c(C(=O)O)cc1F` [Compound 162] and `N#Cc1cc(C(=O)O)c(NC(=O)c2ccc(-n3ccnc3)nn2)cc1CCCc1cc(NC(=O)c2ccc(-n3ccnc3)nn2)c(C(=O)O)cc1F` [Compound 182] fall in the same range of EC50: 50 to 500 nM for the first, 50 to 500 nM for the second.

First: COC(=O)c1cc(F)c(CCOc2cc(NC(=O)c3ccc(-n4ccnc4)nn3)c(C(=O)OC)cc2C#N)cc1NC(=O)c1ccc(-n2ccnc2)nn1 [Compound 163]
Second: COC(=O)c1cc(F)c(CCCc2cc(NC(=O)c3ccc(-n4ccnc4)nn3)c(C(=O)OC)s2)cc1NC(=O)c1ccc(-n2ccnc2)nn1 [Compound 165]
The EC50 of the first is higher: 500 to 5000 nM for the first, 50 to 500 nM for the second. The second is the more potent here.

`O=C(Nc1cc(CCCc2cc(NC(=O)c3ccc(-n4ccnc4)nn3)c(C(=O)O)s2)c(F)cc1C(=O)O)c1ccc(-n2ccnc2)nn1` [Compound 164] and `O=C(Nc1cc(CCCc2cc(NC(=O)c3ccc(-n4ccnc4)nn3)c(C(=O)O)cc2Cl)c(F)cc1C(=O)O)c1ccc(-n2ccnc2)nn1` [Compound 174] fall in the same range of EC50: 50 to 500 nM for the first, 50 to 500 nM for the second.

`O=C(Nc1cc(OCCCOc2cc(NC(=O)c3ccc(-n4ccnc4)nn3)c(C(=O)O)cc2F)c(F)cc1C(=O)O)c1ccc(-n2ccnc2)nn1` [Compound 168] and `O=C(Nc1cc(OCCOc2cc(C(=O)O)c(NC(=O)c3ccc(-n4ccnc4)nn3)cc2F)c(F)cc1C(=O)O)c1ccc(-n2ccnc2)nn1` [Compound 191] fall in the same range of EC50: 50 to 500 nM for the first, 50 to 500 nM for the second.

First: O=C(Nc1cc(OCCc2cc(C(=O)O)c(NC(=O)c3ccc4nnnn4n3)cc2F)c(F)cc1C(=O)O)c1ccc(-n2ccnc2)nn1 [Compound 169]
Second: O=C(Nc1cc(OCc2cc(C(=O)O)c(NC(=O)c3ccc(-n4ccnc4)nn3)cc2F)c(F)cc1C(=O)O)c1ccc(-n2ccnc2)nn1 [Compound 190]
The EC50 of the first is lower: 50 to 500 nM for the first, greater than 5000 nM for the second.

Compared with `O=C(Nc1cc(COc2cc(NC(=O)c3ccc(-n4ccnc4)nn3)c(C(=O)O)cc2F)c(F)cc1C(=O)O)c1ccc(-n2ccnc2)nn1` [Compound 175], `O=C(Nc1cc(CCSc2cc(NC(=O)c3ccc(-n4ccnc4)nn3)c(C(=O)O)cc2F)c(F)cc1C(=O)O)c1ccc(-n2ccnc2)nn1` [Compound 195] is lower in EC50: 500 to 5000 nM for the first, less than 50 nM for the second. The second is the more potent here.

Compared with `O=C(Nc1cc(OCCc2c(F)cc(NC(=O)c3ccc(-n4ccnc4)nn3)c(C(=O)O)c2F)c(F)cc1C(=O)O)c1ccc(-n2ccnc2)nn1` [Compound 177], `O=C(Nc1cc(CCc2cc(C(=O)O)c(NC(=O)c3ccc(-n4ccnc4)nn3)cc2F)c(F)cc1C(=O)O)c1ccc(-n2ccnc2)nn1` [Compound 180] is higher in EC50: less than 50 nM for the first, greater than 5000 nM for the second.

`CC(Cc1cc(NC(=O)c2ccc(-n3ccnc3)nn2)c(C(=O)O)cc1F)Cc1cc(NC(=O)c2ccc(-n3ccnc3)nn2)c(C(=O)O)cc1F` [Compound 194] and `C=C(Cc1cc(NC(=O)c2ccc(-n3ccnc3)nn2)c(C(=O)O)cc1F)Cc1cc(NC(=O)c2ccc(-n3ccnc3)nn2)c(C(=O)O)cc1F` [Compound 199] fall in the same range of EC50: 50 to 500 nM for the first, 50 to 500 nM for the second.

First: O=C(Nc1cc(OCCc2cc(C(=O)O)c(NC(=O)c3ccc(-c4cn[nH]c4)nn3)cc2F)c(F)cc1C(=O)O)c1ccc(-c2cn[nH]c2)nn1 [Compound 204]
Second: C#Cc1cc(NC(=O)c2ccc(-n3ccnc3)nn2)c(C(=O)O)cc1OCCc1cc(NC(=O)c2ccc(-n3ccnc3)nn2)c(C(=O)O)cc1F [Compound 209]
The EC50 of the first is higher: 50 to 500 nM for the first, less than 50 nM for the second.
